Several values for one entry are separate records, joined by “and”; a condition that tells them apart may be missing. Equal entries are not always repeated. Inconclusive results and toxic doses are left out.
Tested on: P388 leukemia ip, CD2F1 mice, survival T/C
Assay: NCI In Vivo Anticancer Drug Screen. Data for tumor model P388 Leukemia (intraperitoneal) in CD2F1 (CDF1) mice
Settings: endpoint: median survival time, higher = longer survival
Summary of the method: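 Mice carrying the transplanted tumor received test compound or vehicle. Survival was recorded in each group, and the value is the treated-group measurement divided by that of the vehicle-treated control group.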

[1] = dose: 50.0 mg/kg/injection, schedule: Q01DX005 (ip), vehicle: saline with Tween-80
[2] = dose: 100.0 mg/kg/injection, schedule: Q01DX005 (ip), vehicle: saline with Tween-80
[3] = dose: 15.0 mg/kg/injection, schedule: Q01DX005 (ip), vehicle: saline
[4] = dose: 50.0 mg/kg/injection, schedule: Q01DX009 (ip), vehicle: Klucel (hydroxypropylcellulose) (HPC)

For O=C(Nc1nc2cc(Cl)ccc2o1)c1ccc(C(=O)Nc2nc3cc(Cl)ccc3o2)cc1, the T/C (dose: 100.0 mg/kg/injection, schedule: Q04DX003 (ip), vehicle: saline with Tween-80) was 108 % of control, the T/C (dose: 200.0 mg/kg/injection, schedule: Q04DX003 (ip), vehicle: saline with Tween-80) was 94 % of control and the T/C (dose: 400.0 mg/kg/injection, schedule: Q04DX003 (ip), vehicle: saline with Tween-80) was 99 % of control.
With CC(C)Cc1nccs1 the T/C (dose: 25.0 mg/kg/injection, schedule: Q01DX009 (ip), vehicle: saline with Tween-80) was 105 % of control, the T/C (dose: 50.0 mg/kg/injection, schedule: Q01DX009 (ip), vehicle: saline with Tween-80) was 105 % of control and 110 % of control and the T/C (dose: 100.0 mg/kg/injection, schedule: Q01DX009 (ip), vehicle: saline with Tween-80) was 106 % of control and 117 % of control. For the same molecule, the T/C (dose: 200.0 mg/kg/injection, schedule: Q01DX009 (ip), vehicle: saline with Tween-80) was 118 % of control.
In the case of CCCCCCCN(CCCCCCC)CCCC(O)c1cccc2ccccc12 (stereo not given), the T/C (dose: 12.5 mg/kg/injection, schedule: Q01DX005 (ip), vehicle: saline with Tween-80) is reported as 104 % of control, the T/C (dose: 25.0 mg/kg/injection, schedule: Q01DX005 (ip), vehicle: saline with Tween-80) is reported as 107 % of control and the T/C [1] is reported as 103 % of control. The T/C [2] was 107 % of control.
For COC1OCC(NC(=O)CNC(=O)CCCCCCCCCCCCC(C)C)C(O)C1O (stereo not given), the T/C (dose: 6.25 mg/kg/injection, schedule: Q01DX009 (ip), vehicle: distilled water + Tween-80) was 100 % of control, the T/C (dose: 12.5 mg/kg/injection, schedule: Q01DX009 (ip), vehicle: distilled water + Tween-80) was 93 % of control and the T/C (dose: 25.0 mg/kg/injection, schedule: Q01DX009 (ip), vehicle: distilled water + Tween-80) was 99 % of control. For the same molecule, the T/C (dose: 50.0 mg/kg/injection, schedule: Q01DX009 (ip), vehicle: distilled water + Tween-80) was 104 % of control, the T/C (dose: 100.0 mg/kg/injection, schedule: Q01DX009 (ip), vehicle: distilled water + Tween-80) was 104 % of control and the T/C (dose: 200.0 mg/kg/injection, schedule: Q01DX009 (ip), vehicle: distilled water + Tween-80) was 108 % of control.
[N-]=[N+]=NC1(N=[N+]=[N-])C(=O)Nc2ccc(Cl)cc2C1=O (stereo not given) was tested, and the T/C (dose: 50.0 mg/kg/injection, schedule: Q01DX005 (ip), vehicle: Klucel (hydroxypropylcellulose) (HPC)) was 107 % of control and the T/C (dose: 100.0 mg/kg/injection, schedule: Q01DX005 (ip), vehicle: Klucel (hydroxypropylcellulose) (HPC)) was 88 % of control.
In the case of c1ccc(Nc2nnc3nc(-c4ccccc4)c(-c4ccccc4)nn23)cc1, the T/C [1] is reported as 91 % of control, the T/C [2] is reported as 90 % of control and the T/C (dose: 200.0 mg/kg/injection, schedule: Q01DX005 (ip), vehicle: saline with Tween-80) is reported as 102 % of control.
For C=CCn1c(-c2ccccn2)n[nH]c1=S, the T/C (dose: 60.0 mg/kg/injection, schedule: Q01DX005 (ip), vehicle: saline with Tween-80) was 102 % of control, the T/C (dose: 120.0 mg/kg/injection, schedule: Q01DX005 (ip), vehicle: saline with Tween-80) was 101 % of control and the T/C (dose: 240.0 mg/kg/injection, schedule: Q01DX005 (ip), vehicle: saline with Tween-80) was 100 % of control.
With C/C=C(\C)C(=O)OC1C2C(C)=CC(=O)C(O)C2(C)C2C3(O)OCC24C1OC(=O)C(O)C4C(C)C3O (stereo not given) the T/C (dose: 2.5 mg/kg/injection, schedule: Q01DX005 (ip), vehicle: saline) was 154 % of control, the T/C (dose: 7.5 mg/kg/injection, schedule: Q01DX005 (ip), vehicle: Klucel (hydroxypropylcellulose) (HPC)) was 175 % of control and the T/C (dose: 10.0 mg/kg/injection, schedule: Q01DX005 (ip), vehicle: saline) was 154 % of control. For the same molecule, the T/C (dose: 15.0 mg/kg/injection, schedule: Q01DX005 (ip), vehicle: Klucel (hydroxypropylcellulose) (HPC)) was 180 % of control, the T/C [3] was 154 % of control and the T/C (dose: 30.0 mg/kg/injection, schedule: Q01DX005 (ip), vehicle: Klucel (hydroxypropylcellulose) (HPC)) was 189 % of control.
CC1(C)CN(Cc2ccccc2)C2OC1N(Cc1ccccc1)CC2(C)C was tested, and the T/C [4] was 102 % of control, the T/C (dose: 100.0 mg/kg/injection, schedule: Q01DX009 (ip), vehicle: Klucel (hydroxypropylcellulose) (HPC)) was 99 % of control and the T/C (dose: 200.0 mg/kg/injection, schedule: Q01DX009 (ip), vehicle: Klucel (hydroxypropylcellulose) (HPC)) was 96 % of control.
In the case of Nc1nnc(N)n1-n1c(N)nnc1N, the T/C [3] is reported as 104 % of control, the T/C (dose: 30.0 mg/kg/injection, schedule: Q01DX005 (ip), vehicle: saline) is reported as 99 % of control and the T/C (dose: 60.0 mg/kg/injection, schedule: Q01DX005 (ip), vehicle: saline) is reported as 100 % of control and 104 % of control.
For O=NNc1ccc(Cl)nc1, the T/C (dose: 3.12 mg/kg/injection, schedule: Q01DX009 (ip), vehicle: saline) was 109 % of control, the T/C (dose: 6.25 mg/kg/injection, schedule: Q01DX009 (ip), vehicle: saline) was 110 % of control and the T/C (dose: 12.5 mg/kg/injection, schedule: Q01DX009 (ip), vehicle: saline) was 106 % of control. For the same molecule, the T/C (dose: 25.0 mg/kg/injection, schedule: Q01DX009 (ip), vehicle: saline) was 106 % of control and the T/C (dose: 50.0 mg/kg/injection, schedule: Q01DX009 (ip), vehicle: saline) was 107 % of control.
With C[As](C)SCC(N)C(=O)O (stereo not given) the T/C (dose: 12.5 mg/kg/injection, schedule: Q01DX009 (ip), vehicle: Klucel (hydroxypropylcellulose) (HPC)) was 107 % of control, the T/C (dose: 25.0 mg/kg/injection, schedule: Q01DX009 (ip), vehicle: Klucel (hydroxypropylcellulose) (HPC)) was 106 % of control and the T/C [4] was 103 % of control and 110 % of control.

From PubChem BioAssay AID330 (DTP/NCI, 2004)
